Measurements taken from patent publication US20100297020A1, “PHOSPHORYLATED AND PHOSPHONATED PYRONE ANALOGS FOR THERAPEUTIC TREATMENT” (Limerick Biopharma, Inc., priority 2008, published 2010).
Where two headings read alike, the source gives them in different places.

Experiments:
[1] = test system: ATPase, Na+/K+, Heart, Pig; assay: Secondary toxicity screen (MDS Pharma Services): ATPase, Na+/K+; type: biochemical
[2] = molecular target: Nitric Oxide Synthase, Endothelial (eNOS) (Homo sapiens, UniProt P29474); assay: Secondary toxicity screen: eNOS; type: biochemical
[3] = molecular target: Protein Tyrosine Kinase, FGFR2 (Homo sapiens, UniProt P21802); assay: Secondary toxicity screen: FGFR2; type: biochemical
Sequence of Protein Tyrosine Kinase, FGFR2 (P21802 22-821): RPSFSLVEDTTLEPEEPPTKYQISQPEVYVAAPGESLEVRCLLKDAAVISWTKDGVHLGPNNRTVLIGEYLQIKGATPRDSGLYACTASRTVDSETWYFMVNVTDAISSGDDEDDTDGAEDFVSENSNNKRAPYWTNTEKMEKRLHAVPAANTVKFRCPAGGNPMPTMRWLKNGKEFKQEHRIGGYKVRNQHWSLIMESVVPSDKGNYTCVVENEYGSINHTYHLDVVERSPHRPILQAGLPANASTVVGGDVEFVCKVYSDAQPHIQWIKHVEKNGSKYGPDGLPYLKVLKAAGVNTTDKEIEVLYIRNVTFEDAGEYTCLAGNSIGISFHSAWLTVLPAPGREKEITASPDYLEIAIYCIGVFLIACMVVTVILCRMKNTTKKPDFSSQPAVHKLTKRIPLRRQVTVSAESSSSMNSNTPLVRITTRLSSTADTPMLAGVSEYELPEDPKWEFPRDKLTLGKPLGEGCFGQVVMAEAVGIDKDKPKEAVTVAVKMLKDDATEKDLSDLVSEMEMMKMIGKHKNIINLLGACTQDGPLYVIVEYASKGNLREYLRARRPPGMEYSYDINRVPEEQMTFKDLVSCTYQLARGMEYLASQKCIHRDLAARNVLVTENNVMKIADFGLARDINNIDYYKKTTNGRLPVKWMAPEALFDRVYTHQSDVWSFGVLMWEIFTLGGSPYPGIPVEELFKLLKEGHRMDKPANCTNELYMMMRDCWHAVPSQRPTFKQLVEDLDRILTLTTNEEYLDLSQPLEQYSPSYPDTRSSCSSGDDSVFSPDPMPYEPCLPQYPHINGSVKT

[4] = molecular target: Protein Tyrosine Kinase, FGFR1 (Homo sapiens, UniProt P11362); assay: Secondary toxicity screen: FGFR1; type: biochemical
Sequence of Protein Tyrosine Kinase, FGFR1 (P11362 22-822): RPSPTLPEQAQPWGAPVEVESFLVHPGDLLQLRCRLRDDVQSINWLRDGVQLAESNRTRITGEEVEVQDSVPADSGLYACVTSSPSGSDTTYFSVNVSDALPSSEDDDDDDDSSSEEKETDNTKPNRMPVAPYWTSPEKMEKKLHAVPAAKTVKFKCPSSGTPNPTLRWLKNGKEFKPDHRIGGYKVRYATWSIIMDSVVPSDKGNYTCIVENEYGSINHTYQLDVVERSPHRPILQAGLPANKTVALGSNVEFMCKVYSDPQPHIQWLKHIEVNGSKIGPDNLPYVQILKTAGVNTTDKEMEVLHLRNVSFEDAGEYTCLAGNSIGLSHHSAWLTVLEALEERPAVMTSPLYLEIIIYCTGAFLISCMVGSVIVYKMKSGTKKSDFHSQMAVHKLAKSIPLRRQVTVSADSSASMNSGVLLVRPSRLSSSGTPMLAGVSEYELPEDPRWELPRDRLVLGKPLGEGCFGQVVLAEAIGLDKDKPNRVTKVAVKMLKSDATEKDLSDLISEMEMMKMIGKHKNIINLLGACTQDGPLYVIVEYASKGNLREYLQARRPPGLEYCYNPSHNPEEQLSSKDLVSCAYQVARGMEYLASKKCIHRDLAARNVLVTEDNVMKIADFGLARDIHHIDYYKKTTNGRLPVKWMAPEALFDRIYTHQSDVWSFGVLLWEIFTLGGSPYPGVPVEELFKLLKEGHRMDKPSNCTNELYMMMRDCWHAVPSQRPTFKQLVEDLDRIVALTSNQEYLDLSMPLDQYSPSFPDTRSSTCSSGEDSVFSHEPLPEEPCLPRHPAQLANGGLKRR

[5] = molecular target: Protein Tyrosine Kinase, Insulin Receptor (Homo sapiens, UniProt P06213); assay: Secondary toxicity screen: Insulin Receptor kinase; type: biochemical
Sequence of Protein Tyrosine Kinase, Insulin Receptor (P06213 28-1382): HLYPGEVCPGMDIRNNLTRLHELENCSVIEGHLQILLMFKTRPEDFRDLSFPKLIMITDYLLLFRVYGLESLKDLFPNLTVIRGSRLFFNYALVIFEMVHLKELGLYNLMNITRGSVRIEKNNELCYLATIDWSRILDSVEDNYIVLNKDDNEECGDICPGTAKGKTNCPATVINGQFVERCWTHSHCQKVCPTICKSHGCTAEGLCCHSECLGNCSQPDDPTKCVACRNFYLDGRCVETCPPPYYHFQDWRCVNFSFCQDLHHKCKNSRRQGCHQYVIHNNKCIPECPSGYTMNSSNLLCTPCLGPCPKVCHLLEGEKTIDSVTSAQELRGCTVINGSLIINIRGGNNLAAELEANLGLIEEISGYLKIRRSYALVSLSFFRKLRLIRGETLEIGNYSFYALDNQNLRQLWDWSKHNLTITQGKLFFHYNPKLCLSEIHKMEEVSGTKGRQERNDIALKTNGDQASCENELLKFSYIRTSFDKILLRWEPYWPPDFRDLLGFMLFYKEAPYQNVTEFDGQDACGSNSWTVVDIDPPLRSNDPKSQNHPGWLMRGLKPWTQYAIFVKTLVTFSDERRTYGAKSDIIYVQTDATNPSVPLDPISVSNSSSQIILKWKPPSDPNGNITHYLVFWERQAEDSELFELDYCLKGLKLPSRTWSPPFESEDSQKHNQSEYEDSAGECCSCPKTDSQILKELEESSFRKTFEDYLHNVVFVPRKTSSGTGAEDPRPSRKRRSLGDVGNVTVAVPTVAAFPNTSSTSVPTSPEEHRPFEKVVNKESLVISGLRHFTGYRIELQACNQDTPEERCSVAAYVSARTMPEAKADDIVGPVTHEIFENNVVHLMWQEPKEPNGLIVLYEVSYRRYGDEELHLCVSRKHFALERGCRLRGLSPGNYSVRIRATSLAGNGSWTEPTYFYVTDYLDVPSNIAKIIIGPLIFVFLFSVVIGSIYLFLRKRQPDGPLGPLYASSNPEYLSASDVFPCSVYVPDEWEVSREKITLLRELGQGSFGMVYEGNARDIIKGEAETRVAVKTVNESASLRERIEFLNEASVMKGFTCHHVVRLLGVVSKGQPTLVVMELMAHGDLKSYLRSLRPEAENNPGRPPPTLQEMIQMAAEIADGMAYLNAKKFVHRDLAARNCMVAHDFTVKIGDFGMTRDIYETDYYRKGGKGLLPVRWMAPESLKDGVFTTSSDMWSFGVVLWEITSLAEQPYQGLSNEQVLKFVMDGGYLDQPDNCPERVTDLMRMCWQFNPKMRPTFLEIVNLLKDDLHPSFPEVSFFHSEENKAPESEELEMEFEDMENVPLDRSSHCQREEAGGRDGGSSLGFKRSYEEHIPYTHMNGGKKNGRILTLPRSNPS

Protein Tyrosine Kinase, = assay: Secondary toxicity screen: Protein Tyrosine Kinase (name not given); type: biochemical
[6] = molecular target: Protein Tyrosine Kinase, ZA70 (ZAP-70) (Homo sapiens, UniProt P43403); assay: Secondary toxicity screen: ZAP-70; type: biochemical
Sequence of Protein Tyrosine Kinase, ZA70 (ZAP-70) (P43403 whole entry, species assumed): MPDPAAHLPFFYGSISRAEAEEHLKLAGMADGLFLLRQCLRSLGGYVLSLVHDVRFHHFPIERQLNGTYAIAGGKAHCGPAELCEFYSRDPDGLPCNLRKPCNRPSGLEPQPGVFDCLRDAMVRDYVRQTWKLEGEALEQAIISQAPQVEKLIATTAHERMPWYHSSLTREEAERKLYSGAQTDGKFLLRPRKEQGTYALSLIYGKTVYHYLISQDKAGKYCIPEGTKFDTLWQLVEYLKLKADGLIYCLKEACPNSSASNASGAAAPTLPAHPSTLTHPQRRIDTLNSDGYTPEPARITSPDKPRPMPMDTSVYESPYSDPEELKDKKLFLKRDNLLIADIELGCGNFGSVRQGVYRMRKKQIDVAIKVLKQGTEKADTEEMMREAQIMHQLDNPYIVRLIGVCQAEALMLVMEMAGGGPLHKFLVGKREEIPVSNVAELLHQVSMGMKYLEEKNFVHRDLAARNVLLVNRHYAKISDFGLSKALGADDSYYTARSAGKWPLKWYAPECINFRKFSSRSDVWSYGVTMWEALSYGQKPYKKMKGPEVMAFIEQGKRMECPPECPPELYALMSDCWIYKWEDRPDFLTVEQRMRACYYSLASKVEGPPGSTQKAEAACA

AdenosineA1 [7] = molecular target: T1, AdenosineA1 (Homo sapiens, UniProt P30542); assay: Secondary toxicity screen: Adenosine A1; type: binding
T1 sequence (P30542 1-326): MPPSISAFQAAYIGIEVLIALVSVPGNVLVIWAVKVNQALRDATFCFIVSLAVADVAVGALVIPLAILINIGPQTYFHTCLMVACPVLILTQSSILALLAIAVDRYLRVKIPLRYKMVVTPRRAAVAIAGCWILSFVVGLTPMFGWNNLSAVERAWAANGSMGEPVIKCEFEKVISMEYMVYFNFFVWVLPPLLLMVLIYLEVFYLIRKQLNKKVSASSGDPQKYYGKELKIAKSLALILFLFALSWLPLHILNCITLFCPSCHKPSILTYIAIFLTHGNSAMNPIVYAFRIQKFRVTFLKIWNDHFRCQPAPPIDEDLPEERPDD

Adrenergic α2A = Adrenergic α2A (Homo sapiens, UniProt P08913); assay: Secondary toxicity screen: Adrenergic α2A; type: binding
Dopamine D47 = assay: Secondary toxicity screen: Dopamine D47; type: binding
[8] = molecular target: Peripheral Benzodiazepine Receptor (PBR) (Homo sapiens, UniProt P30536); assay: Secondary toxicity screen: Peripheral Benzodiazepine Receptor; type: binding
Sequence of Peripheral Benzodiazepine Receptor (PBR) (P30536 whole entry, species assumed): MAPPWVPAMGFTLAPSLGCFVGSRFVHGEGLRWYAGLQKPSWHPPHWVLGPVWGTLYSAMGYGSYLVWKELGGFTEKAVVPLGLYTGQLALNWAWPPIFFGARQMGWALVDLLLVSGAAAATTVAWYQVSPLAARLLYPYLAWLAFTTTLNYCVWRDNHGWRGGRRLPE

[9] = test system: Transporter, Monoamine rabbit; assay: Secondary toxicity screen: Transporter, Monoamine; type: binding
[10] = molecular target: Serotonin (5-Hydroxytryptamine) 5-HT1A (Homo sapiens, UniProt P08908); assay: Secondary toxicity screen: 5-HT1A; type: binding
Sequence of Serotonin (5-Hydroxytryptamine) 5-HT1A (P08908 whole entry): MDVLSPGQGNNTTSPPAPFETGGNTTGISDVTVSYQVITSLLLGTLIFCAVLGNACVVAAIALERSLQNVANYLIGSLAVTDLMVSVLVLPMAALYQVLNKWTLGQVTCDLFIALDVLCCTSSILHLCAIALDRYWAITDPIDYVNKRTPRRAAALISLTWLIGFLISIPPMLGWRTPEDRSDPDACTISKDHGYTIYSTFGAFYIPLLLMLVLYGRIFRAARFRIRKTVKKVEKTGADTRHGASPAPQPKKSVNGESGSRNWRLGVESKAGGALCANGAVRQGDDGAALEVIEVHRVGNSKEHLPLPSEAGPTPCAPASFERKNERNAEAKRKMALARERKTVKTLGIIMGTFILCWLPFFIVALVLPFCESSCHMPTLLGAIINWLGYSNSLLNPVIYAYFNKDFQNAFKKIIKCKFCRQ

AdenosineA1 [11] = molecular target: T1, AdenosineA1; assay: AdenosineA1 GTPγS functional assay; type: biochemical
Method: (§1) The compound is additionally tested in AdenosineA1, AdrenergicA2A, DopamineD25, Histamine H1-, and μ-Opiate GTPγS functional assays using a concentration of 10 μM.
(§2) The compound may be additionally tested in AdenosineA1, AdrenergicA2A, DopamineD25, Histamine H1-, and μ-Opiate GTPγS functional assays using a concentration of 10 μM.
(§3) The compound can be additionally tested in AdenosineA1, AdrenergicA2A, DopamineD25, Histamine H1-, and μ-Opiate GTPγS functional assays using a concentration of 10 μM.

AdrenergicA2A = molecular target: T2, AdrenergicA2A (Homo sapiens, UniProt P08913); assay: AdrenergicA2A GTPγS functional assay; type: biochemical
T2 sequence (P08913 1-465): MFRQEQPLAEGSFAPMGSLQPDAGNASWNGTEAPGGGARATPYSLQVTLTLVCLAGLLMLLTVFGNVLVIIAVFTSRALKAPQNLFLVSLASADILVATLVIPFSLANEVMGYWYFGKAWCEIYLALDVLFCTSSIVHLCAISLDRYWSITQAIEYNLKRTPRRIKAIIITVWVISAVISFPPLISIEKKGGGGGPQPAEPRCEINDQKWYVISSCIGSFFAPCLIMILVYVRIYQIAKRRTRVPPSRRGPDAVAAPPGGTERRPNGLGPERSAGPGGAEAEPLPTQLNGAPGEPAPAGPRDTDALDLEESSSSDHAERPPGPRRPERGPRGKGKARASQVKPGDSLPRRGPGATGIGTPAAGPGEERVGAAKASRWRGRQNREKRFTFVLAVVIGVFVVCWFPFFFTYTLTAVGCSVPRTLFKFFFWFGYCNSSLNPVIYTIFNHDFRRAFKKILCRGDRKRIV
Method: as §1, §2, §3

[12] = pH 8
Method: Quercetin-3′-O-phosphate is dissolved in water at about pH 8.
Fisetin-3′-O-phosphate is dissolved in water at about pH 8.
Quercetin-3′-O-methylphosphonate (Compound 2) is dissolved in water at about pH 8.

[13] = molecular target: UDP Glucuronosyltransferase, UGT1A1 (Homo sapiens, UniProt P22309)
Sequence of UDP Glucuronosyltransferase, UGT1A1 (P22309 26-533): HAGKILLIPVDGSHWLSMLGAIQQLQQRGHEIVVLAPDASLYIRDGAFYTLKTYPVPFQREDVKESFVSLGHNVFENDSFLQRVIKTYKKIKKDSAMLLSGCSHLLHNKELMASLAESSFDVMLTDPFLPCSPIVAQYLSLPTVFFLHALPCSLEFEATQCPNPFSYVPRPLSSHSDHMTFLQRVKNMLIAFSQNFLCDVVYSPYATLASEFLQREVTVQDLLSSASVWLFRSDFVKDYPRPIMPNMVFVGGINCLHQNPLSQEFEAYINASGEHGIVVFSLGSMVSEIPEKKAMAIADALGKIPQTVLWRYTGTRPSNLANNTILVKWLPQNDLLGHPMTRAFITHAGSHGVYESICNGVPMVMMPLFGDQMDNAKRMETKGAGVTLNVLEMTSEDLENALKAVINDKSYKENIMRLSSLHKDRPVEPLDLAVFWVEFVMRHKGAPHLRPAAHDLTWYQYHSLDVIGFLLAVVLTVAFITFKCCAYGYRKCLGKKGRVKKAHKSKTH

[14] = molecular target: UGT1A1 (UDP glucuronosyltransferase) (Homo sapiens, UniProt P22309); assay: in vitro
Sequence of UGT1A1 (UDP glucuronosyltransferase) (P22309 26-533): as above

[15] = 10 uM, read-out: percent inhibition at 10 μM

Compound: O=c1c(O)c(-c2ccc(O)c(OP(=O)(O)O)c2)oc2cc(O)ccc12 [fisetin-3′-O-phosphate, Fisetin-3′-O-phosphate]
- percent inhibition at 10 μM [1]: 65%
- percent inhibition at 10 μM [2]: 72%
- percent inhibition at 10 μM [3]: 94%
- percent inhibition at 10 μM [4]: 96%
- percent inhibition at 10 μM [5]: 91%
- percent inhibition at 10 μM (Protein Tyrosine Kinase,): 82%
- percent inhibition at 10 μM [6]: 74%
- percent inhibition at 10 μM (AdenosineA1 [7]): 50%
- percent inhibition at 10 μM (Adrenergic α2A): 57%
- percent inhibition at 10 μM (Dopamine D47): 51%
- percent inhibition at 10 μM [8]: 53%
- percent inhibition at 10 μM [9]: 68%
- percent inhibition at 10 μM [10]: 62%
- antagonist activity in the AdenosineA1 assay (AdenosineA1 [11]): 48%
- inhibition in the AdrenergicA2A assay (AdrenergicA2A): marked negative inhibition
- degradation seen by NMR and HPLC [12]: no degradation
- percent inhibition at 10 μM [13]: 52%

Compound: O=c1c(O)c(-c2ccc(O)c(OP(=O)(O)O)c2)oc2cc(O)cc(O)c12 [quercetin-3′-O-phosphate]
- percent inhibition at 10 μM ([1]; 10 uM): 65%
- inhibition at 10 µM [2, 15]: 72%
- inhibition at 10 µM [3, 15]: 94%
- inhibition at 10 µM [4, 15]: 96%
- inhibition at 10 µM [5, 15]: 91%
- percent inhibition at 10 μM (Protein Tyrosine Kinase,; 10 uM): 82%
- inhibition at 10 µM [6, 15]: 74%
- inhibition at 10 µM (AdenosineA1 [7]; [15]): 50%
- inhibition at 10 µM (Adrenergic α2A; [15]): 57%
- percent inhibition at 10 μM (Dopamine D47; 10 uM): 51%
- inhibition at 10 µM [8, 15]: 53%
- percent inhibition at 10 μM ([9]; 10 uM): 68%
- inhibition at 10 µM [10, 15]: 62%
- antagonist activity in the AdenosineA1 assay (AdenosineA1 [11]; 10 μM): 48%
- inhibition in the AdrenergicA2A assay (AdrenergicA2A; 10 μM): marked negative inhibition
- degradation seen by NMR and HPLC [12]: no degradation
- inhibition at 10 µM [14]: 52%
